From patent US20170190671A1, “BIS(ARYL)CATECHOL DERIVATIVES AS HERBICIDES” (E I DU PONT DE NEMOURS AND COMPANY, priority 2014, published 2017)

Tests used:
[1] = system: galium (catchweed bedstraw, Galium aparine); assay: Test C preemergence; format: in vivo; settings: Galium, pre-emergence, 336 h, preemergence, scale 0 to 100, read-out: Plant response rating, Galium
Summary of the method: (§1)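 Seeded loam-sand soil (preemergence) or young potted plants of 2-18 cm (postemergence) received test chemical formulated with surfactant in a non-phytotoxic solvent. Pots were kept in the greenhouse for 13-15 days before a visual 0-100 control rating relative to controls.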

[2] = system: morningglory (Ipomoea coccinea); assay: Test C preemergence; format: in vivo; settings: Ipomoea, pre-emergence, 336 h, preemergence, scale 0 to 100, read-out: Plant response rating, Morningglory
Summary of the method: as §1

[3] = system: oilseed rape (Brassica napus); assay: Test C preemergence; format: in vivo; settings: Brassica napus, pre-emergence, preemergence, scale 0 to 100, read-out: Plant response rating, Oilseed Rape
Summary of the method: as §1

[4] = system: waterhemp (common waterhemp, Amaranthus rudis); assay: Test C preemergence; format: in vivo; settings: Amaranthus tuberculatus, pre-emergence, preemergence, scale 0 to 100, read-out: Plant response rating, Waterhemp
Summary of the method: as §1

[5] = system: Italian ryegrass (Lolium multiflorum); assay: Test C postemergence; format: in vivo; settings: Lolium multiflorum, post-emergence, 336 h, Postemergence, scale 0 to 100, read-out: Plant response rating, Ryegrass, Italian
Summary of the method: as §1

[6] = system: barnyardgrass (Echinochloa crus-galli); assay: Test C postemergence; format: in vivo; settings: Echinochloa crus-galli, post-emergence, Postemergence, scale 0 to 100, read-out: Plant response rating, Barnyardgrass
Summary of the method: as §1

[7] = system: blackgrass (Alopecurus myosuroides); assay: Test C postemergence; format: in vivo; settings: Alopecurus myosuroides, post-emergence, 336 h, Postemergence, scale 0 to 100, read-out: Plant response rating, Blackgrass
Summary of the method: as §1

[8] = system: chickweed (common chickweed, Stellaria media); assay: Test C postemergence; format: in vivo; settings: Stellaria media, post-emergence, Postemergence, scale 0 to 100, read-out: Plant response rating, Chickweed
Summary of the method: as §1

[9] = system: corn (Zea mays); assay: Test C postemergence; format: in vivo; settings: Zea mays, post-emergence, 336 h, Postemergence, scale 0 to 100
Summary of the method: as §1

[10] = system: johnsongrass (Sorghum halepense); assay: Test C postemergence; format: in vivo; settings: Sorghum halepense, post-emergence, 336 h, Postemergence, scale 0 to 100, read-out: Plant response rating, Johnsongrass
Summary of the method: as §1

[11] = system: kochia (Kochia scoparia); assay: Test C postemergence; format: in vivo; settings: Bassia scoparia, post-emergence, Postemergence, scale 0 to 100, read-out: Plant response rating, Kochia
Summary of the method: as §1

[12] = system: lambsquarters (Chenopodium album); assay: Test C postemergence; format: in vivo; settings: Chenopodium album, post-emergence, 336 h, Postemergence, scale 0 to 100, read-out: Plant response rating, Lambsquarters
Summary of the method: as §1

[13] = system: large (Lg) crabgrass (Digitaria sanguinalis); assay: Test C postemergence; format: in vivo; settings: Digitaria sanguinalis, post-emergence, 336 h, Postemergence, scale 0 to 100, read-out: Plant response rating, Crabgrass, Large
Summary of the method: as §1

[14] = system: oilseed rape (Brassica napus); assay: Test C postemergence; format: in vivo; settings: Brassica napus, post-emergence, Postemergence, scale 0 to 100, read-out: Plant response rating, Oilseed Rape
Summary of the method: as §1

[15] = system: pigweed (Amaranthus retroflexus); assay: Test C postemergence; format: in vivo; settings: Amaranthus retroflexus, post-emergence, 336 h, Postemergence, scale 0 to 100, read-out: Plant response rating, Pigweed
Summary of the method: as §1

[16] = system: ragweed (common ragweed, Ambrosia elatior); assay: Test C postemergence; format: in vivo; settings: Ambrosia artemisiifolia, post-emergence, 336 h, Postemergence, scale 0 to 100, read-out: Plant response rating, Ragweed
Summary of the method: as §1

[17] = system: soybean (Glycine max); assay: Test C postemergence; format: in vivo; settings: Glycine max, post-emergence, Postemergence, scale 0 to 100, read-out: Plant response rating, Soybean
Summary of the method: as §1

[18] = system: velvetleaf (Abutilon theophrasti); assay: Test C postemergence; format: in vivo; settings: Abutilon theophrasti, post-emergence, Postemergence, scale 0 to 100, read-out: Plant response rating, Velvetleaf
Summary of the method: as §1

[19] = system: waterhemp (common waterhemp, Amaranthus rudis); assay: Test C postemergence; format: in vivo; settings: Amaranthus tuberculatus, post-emergence, Postemergence, scale 0 to 100, read-out: Plant response rating, Waterhemp
Summary of the method: as §1

[20] = system: wild oat (Avena fatua); assay: Test C postemergence; format: in vivo; settings: Avena fatua, post-emergence, Postemergence, scale 0 to 100, read-out: Plant response rating, Oat, Wild
Summary of the method: as §1

[21] = system: winter wheat (Triticum aestivum); assay: Test C postemergence; format: in vivo; settings: Triticum aestivum, post-emergence, 336 h, Postemergence, scale 0 to 100, read-out: Plant response rating, Wheat
Summary of the method: as §1

[22] = system: yellow nutsedge (Cyperus esculentus); assay: Test C postemergence; format: in vivo; settings: Cyperus, post-emergence, 336 h, Postemergence, scale 0 to 100, read-out: Plant response rating, Nutsedge, Yellow
Summary of the method: as §1

Fc1cnc(Oc2c(F)cccc2Oc2ncc(Cl)cn2)nc1 [Compound 23]
pest or weed control at 31 g/ha ([1]; 31 g ai/ha): 100%
pest or weed control at 62 g/ha ([1]; 62 g ai/ha): 100%
pest or weed control at 125 g/ha ([1]; 125 g ai/ha): 100%
pest or weed control at 31 g/ha ([2]; 31 g ai/ha): 45%
pest or weed control at 62 g/ha ([2]; 62 g ai/ha): 85%
pest or weed control at 125 g/ha ([2]; 125 g ai/ha): 98%
plant injury at 31 g/ha ([3]; 31 g ai/ha): 100%
plant injury at 62 g/ha ([3]; 62 g ai/ha): 100%
plant injury at 125 g/ha ([3]; 125 g ai/ha): 100%
plant injury at 250 g/ha ([3]; 250 g ai/ha): 100%
pest or weed control at 31 g/ha ([4]; 31 g ai/ha): 100%
pest or weed control at 62 g/ha ([4]; 62 g ai/ha): 100%
pest or weed control at 125 g/ha ([4]; 125 g ai/ha): 100%
pest or weed control at 250 g/ha ([4]; 250 g ai/ha): 100%
pest or weed control at 31 g/ha ([5]; 31 g ai/ha): 0%
pest or weed control at 62 g/ha ([5]; 62 g ai/ha): 0%
pest or weed control at 125 g/ha ([5]; 125 g ai/ha): 0%
pest or weed control at 250 g/ha ([5]; 250 g ai/ha): 35%
pest or weed control at 31 g/ha ([6]; 31 g ai/ha): 5%
pest or weed control at 62 g/ha ([6]; 62 g ai/ha): 10%
pest or weed control at 125 g/ha ([6]; 125 g ai/ha): 10%
pest or weed control at 250 g/ha ([6]; 250 g ai/ha): 25%
pest or weed control at 31 g/ha ([7]; 31 g ai/ha): 0%
pest or weed control at 62 g/ha ([7]; 62 g ai/ha): 5%
pest or weed control at 125 g/ha ([7]; 125 g ai/ha): 5%
pest or weed control at 250 g/ha ([7]; 250 g ai/ha): 30%
pest or weed control at 31 g/ha ([8]; 31 g ai/ha): 50%
pest or weed control at 62 g/ha ([8]; 62 g ai/ha): 50%
pest or weed control at 125 g/ha ([8]; 125 g ai/ha): 60%
pest or weed control at 250 g/ha ([8]; 250 g ai/ha): 60%
Corn plant response rating (crop injury, 0 = no effect, 100 = complete kill) at 31 g/ha ([9]; 31 g ai/ha): 5%
Corn plant response rating (crop injury, 0 = no effect, 100 = complete kill) at 62 g/ha ([9]; 62 g ai/ha): 5%
Corn plant response rating (crop injury, 0 = no effect, 100 = complete kill) at 125 g/ha ([9]; 125 g ai/ha): 10%
Corn plant response rating (crop injury, 0 = no effect, 100 = complete kill) at 250 g/ha ([9]; 250 g ai/ha): 10%
pest or weed control at 31 g/ha ([10]; 31 g ai/ha): 0%
pest or weed control at 62 g/ha ([10]; 62 g ai/ha): 0%
pest or weed control at 125 g/ha ([10]; 125 g ai/ha): 5%
pest or weed control at 250 g/ha ([10]; 250 g ai/ha): 5%
pest or weed control at 31 g/ha ([11]; 31 g ai/ha): 5%
pest or weed control at 62 g/ha ([11]; 62 g ai/ha): 70%
pest or weed control at 125 g/ha ([11]; 125 g ai/ha): 80%
pest or weed control at 250 g/ha ([11]; 250 g ai/ha): 90%
pest or weed control at 31 g/ha ([12]; 31 g ai/ha): 70%
pest or weed control at 62 g/ha ([12]; 62 g ai/ha): 80%
pest or weed control at 125 g/ha ([12]; 125 g ai/ha): 90%
pest or weed control at 250 g/ha ([12]; 250 g ai/ha): 95%
pest or weed control at 31 g/ha ([13]; 31 g ai/ha): 5%
pest or weed control at 62 g/ha ([13]; 62 g ai/ha): 5%
pest or weed control at 125 g/ha ([13]; 125 g ai/ha): 10%
pest or weed control at 250 g/ha ([13]; 250 g ai/ha): 30%
plant injury at 31 g/ha ([14]; 31 g ai/ha): 10%
plant injury at 62 g/ha ([14]; 62 g ai/ha): 30%
plant injury at 125 g/ha ([14]; 125 g ai/ha): 50%
plant injury at 250 g/ha ([14]; 250 g ai/ha): 45%
pest or weed control at 31 g/ha ([15]; 31 g ai/ha): 70%
pest or weed control at 62 g/ha ([15]; 62 g ai/ha): 80%
pest or weed control at 125 g/ha ([15]; 125 g ai/ha): 95%
pest or weed control at 250 g/ha ([15]; 250 g ai/ha): 100%
pest or weed control at 31 g/ha ([16]; 31 g ai/ha): 60%
pest or weed control at 62 g/ha ([16]; 62 g ai/ha): 70%
pest or weed control at 125 g/ha ([16]; 125 g ai/ha): 75%
pest or weed control at 250 g/ha ([16]; 250 g ai/ha): 100%
plant injury at 31 g/ha ([17]; 31 g ai/ha): 70%
plant injury at 62 g/ha ([17]; 62 g ai/ha): 65%
plant injury at 125 g/ha ([17]; 125 g ai/ha): 90%
plant injury at 250 g/ha ([17]; 250 g ai/ha): 95%
pest or weed control at 31 g/ha ([18]; 31 g ai/ha): 70%
pest or weed control at 62 g/ha ([18]; 62 g ai/ha): 70%
pest or weed control at 125 g/ha ([18]; 125 g ai/ha): 75%
pest or weed control at 250 g/ha ([18]; 250 g ai/ha): 90%
pest or weed control at 31 g/ha ([19]; 31 g ai/ha): 65%
pest or weed control at 62 g/ha ([19]; 62 g ai/ha): 75%
pest or weed control at 125 g/ha ([19]; 125 g ai/ha): 90%
pest or weed control at 250 g/ha ([19]; 250 g ai/ha): 98%
pest or weed control at 31 g/ha ([20]; 31 g ai/ha): 0%
pest or weed control at 62 g/ha ([20]; 62 g ai/ha): 0%
pest or weed control at 125 g/ha ([20]; 125 g ai/ha): 0%
pest or weed control at 250 g/ha ([20]; 250 g ai/ha): 5%
plant injury at 31 g/ha ([21]; 31 g ai/ha): 0%
plant injury at 62 g/ha ([21]; 62 g ai/ha): 0%
plant injury at 125 g/ha ([21]; 125 g ai/ha): 0%
plant injury at 250 g/ha ([21]; 250 g ai/ha): 5%
pest or weed control at 31 g/ha ([22]; 31 g ai/ha): 0%
pest or weed control at 62 g/ha ([22]; 62 g ai/ha): 0%
pest or weed control at 125 g/ha ([22]; 125 g ai/ha): 5%
pest or weed control at 250 g/ha ([22]; 250 g ai/ha): 5%
melting point: 141 to 145 °C
